In data set [1] the target is T1, human arginase I (hArgI) (Homo sapiens, UniProt P05089).
T1 sequence (P05089 1-322): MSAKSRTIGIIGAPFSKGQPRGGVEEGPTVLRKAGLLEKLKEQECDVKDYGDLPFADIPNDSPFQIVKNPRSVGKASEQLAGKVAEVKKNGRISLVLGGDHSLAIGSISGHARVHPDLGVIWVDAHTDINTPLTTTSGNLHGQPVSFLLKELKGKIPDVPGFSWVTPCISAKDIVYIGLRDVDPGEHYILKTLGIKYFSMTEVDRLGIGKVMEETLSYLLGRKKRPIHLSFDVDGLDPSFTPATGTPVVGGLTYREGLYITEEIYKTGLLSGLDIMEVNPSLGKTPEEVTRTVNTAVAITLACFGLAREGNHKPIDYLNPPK
In words: QuantiChrom colorimetric arginase inhibition assay, human arginase I. It counts as biochemical. The following applies: IC50 from 12-concentration curve converted to Ki by Cheng-Prusoff equation. How it is done:
(§1) Quantitative determination of arginase activity was performed by a colorimetric method using the QuantiChrom™ Arginase Assay Kit available from BioAssay Systems (Hayward, Calif., Catalog No. DARG-200), which was used according to the manufacture's protocol. Briefly, the method utilizes a chromogen that forms a colored complex specifically with urea produced in the arginase reaction. […] The intensity of the color is directly proportional to the arginase activity in the sample.
(§2) The rate of urea production was measured in the presence of twelve different concentrations of each potential inhibitor compound. The half maximal inhibitory concentration (IC50) was determined by constructing a dose-response curve. As IC50 values are dependent upon the measurement conditions, the IC50 values are converted to the inhibitor binding affinity (Ki) using the Cheng-Prusoff equation and the measured affinity constant (Km) of L-arginine.

Data set [2] addresses T2, human arginase II (hArgII) (Homo sapiens, UniProt P78540).
T2 sequence (P78540 23-354): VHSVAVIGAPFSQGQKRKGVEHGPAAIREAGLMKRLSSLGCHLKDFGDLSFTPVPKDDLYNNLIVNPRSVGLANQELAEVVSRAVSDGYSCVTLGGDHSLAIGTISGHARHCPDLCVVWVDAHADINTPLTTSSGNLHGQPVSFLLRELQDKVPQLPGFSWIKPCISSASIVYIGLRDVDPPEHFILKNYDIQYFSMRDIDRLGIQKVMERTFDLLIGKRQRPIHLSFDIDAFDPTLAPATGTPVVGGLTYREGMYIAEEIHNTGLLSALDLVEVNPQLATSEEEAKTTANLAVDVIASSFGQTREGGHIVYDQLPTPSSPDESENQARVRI
Kind of data set: QuantiChrom colorimetric arginase inhibition assay, human arginase II. The note with it: IC50 from 12-concentration curve converted to Ki by Cheng-Prusoff equation. Format: biochemical. How it is done: as §1, §2

For data set [3], the system named is arginase. Kind of data set: Arginase inhibition, potency comparisons (isoform not stated). Format: biochemical, human. The following applies: relative potency statements in text. The protocol: Quantitative determination of arginase activity was performed by a colorimetric method using the QuantiChrom™ Arginase Assay Kit available from BioAssay Systems (Hayward, Calif., Catalog No. DARG-200), which was used according to the manufacture's protocol. Briefly, the method utilizes a chromogen that forms a colored complex specifically with urea produced in the arginase reaction. See, Mellerup, “Colorimetric method for rapid determination of serum arginase,” Clin. Chem. 13, 900-08 (1967). The intensity of the color is directly proportional to the arginase activity in the sample.
The rate of urea production was measured in the presence of twelve different concentrations of each potential inhibitor compound. The half maximal inhibitory concentration (IC50) was determined by constructing a dose-response curve. As IC50 values are dependent upon the measurement conditions, the IC50 values are converted to the inhibitor binding affinity (Ki) using the Cheng-Prusoff equation and the measured affinity constant (Km) of L-arginine. See, e.g., Cheng et al., “Relationship between the inhibition constant (K1) and the concentration of inhibitor which causes 50 percent inhibition (I50) of an enzymatic reaction,” Biochem. Pharmacol. 22, 3099-108 (1973).
In Table 6, the Ki values reflect the potency of these molecules to inhibit the catalytic activity of arginase to produce urea from the substrate L-arginine. […] That is, racemic materials were compared to racemic controls. Thus, there are several examples that have similar potencies to Rac-ABH.
Shortening the alkyl chain by one carbon atom as in the phenoxyethyl compound 1ad also results in a potency loss. Thus, there appears to be definitive structure-activity features that results in increased potency at the molecular target, arginase, in these α,α-disubstituted derivatives.

The conditions of data set [4]: cited from earlier work.

pKi: −log10 of the molar value. Entries after “also recorded” stand apart in the source; their conditions may differ. Where a name gives a salt, the structure may show the parent alone.

Consider `NC(CCCCB(O)O)C(=O)O` (racemic) [Rac-ABH, reference compound], for which the results for the pKi in data set [1] and in data set [2] were 8.00 to 10.00 and 7.00 to 8.00, respectively.
Turning to `N[C@@](CO)(CCCCB(O)O)C(=O)O` (single isomer, unassigned) [Compound 1ar], the pKi in data set [1] and in data set [2] was 8.00 to 10.00 each time. Also, in data set [3], the “potency as arginase inhibitor, compared in words” value is listed as “most potency as an arginase inhibitor by two orders of magnitude compared to compound 1as; also recorded: as potent as ABH; also recorded: almost two orders of magnitude) more potent than the other enantiomer”.
As to `N[C@](CO)(CCCCB(O)O)C(=O)O` (single isomer, unassigned) [Compound 1as], the pKi in data set [1] and in data set [2] was 6.30 to 7.00 in each case.
Consider `NC(CCCCB(O)O)(Cc1ccccc1)C(=O)O` (stereo not drawn) [Compound 1a, 2-Amino-2-benzyl-6-boronohexanoic acid hydrochloride], for which the pKi in data set [1] and in data set [2] was 6.30 to 7.00 in each case.
As to `Cl.NC(CCCCB(O)O)(CCOCc1ccccc1)C(=O)O` (stereo not drawn) [Compound 1aa, 2-Amino-2-(benzyloxyethyl)-6-boronohexanoic acid hydrochloride], the pKi in data set [1] and in data set [2] was 7.00 to 8.00 throughout. Also, in data set [3], the “potency as arginase inhibitor, compared in words” value is reported as “potency is lost”.
Take `NC(CCCCB(O)O)(CCOc1cccc(Cl)c1)C(=O)O` (stereo not drawn) [Compound 1ad, 2-Amino-6-borono-2-(2-(3-chlorophenoxy)ethyl)hexanoic acid]: the pKi in data set [1] and in data set [2] was 7.00 to 8.00 in each case. In addition, the “potency as arginase inhibitor, compared in words” value in data set [3] is recorded as “potency loss”.
On to `Cl.NC(CCCO)(CCCCB(O)O)C(=O)O` (stereo not drawn) [Compound 1ak, 2-Amino-6-borono-2-(3-hydroxypropyl)hexanoic acid hydrochloride], for which the “potency as arginase inhibitor, compared in words” value in data set [3] is on record as “less potent”.
On to `CC(N)(CCCCB(O)O)C(=O)O` (stereo not drawn) [Compound 1ao, 2-Amino-6-borono-2-methylhexanoic acid hydrochloride], for which the results for the pKi in data set [1] and in data set [2] were 8.00 to 10.00 and 7.00 to 8.00, respectively.
Taken in the same sequence, the figures for `CC(C)CC(N)(CCCCB(O)O)C(=O)O` (stereo not drawn) [Compound 1ap, 2-Amino-6-borono-2-isobutylhexanoic acid hydrochloride] were 7.00 to 8.00 and 7.00 to 8.00.
Taken in the same sequence, the figures for `NC(CO)(CCCCB(O)O)C(=O)O` (stereo not drawn) [Compound 1aq, 2-Amino-6-borono-2-(hydroxymethyl)hexanoic acid hydrochloride] were 8.00 to 10.00 and 7.00 to 8.00.
Regarding `CCC(=O)CC(N)(CCCCB(O)O)C(=O)O` (stereo not drawn) [Compound 1aw, 2-Amino-6-borono-2-(2-oxobutyl)hexanoic acid hydrochloride], the pKi in data set [1] and in data set [2] was 7.00 to 8.00 in each case.
Consider `NC(CCCCB(O)O)(CC(=O)c1ccccc1)C(=O)O` (stereo not drawn) [Compound 1ax, 2-Amino-6-borono-2-(2-oxo-2-phenylethyl)hexanoic acid hydrochloride], for which the pKi in data set [1] and in data set [2] was 7.00 to 8.00 each time.
For the compound `NC(CCCCB(O)O)(CCCC1CCNCC1)C(=O)O` (stereo not drawn) [Compound 1az, 2-Amino-6-borono-2-(3-(piperidin-4-yl)propyl)hexanoic acid], the pKi in data set [1] and in data set [2] was 8.00 to 10.00 throughout.
Take `NC(CCCCB(O)O)(CCCN1CCNCC1)C(=O)O` (stereo not drawn) [Compound 1ba]: the pKi in data set [1] and in data set [2] was 7.00 to 8.00 throughout.
With `NCCCCC(N)(CCCCB(O)O)C(=O)O` (stereo not drawn) [Compound 1bb, 2,6-Diamino-2-(4-boronobutyl)hexanoic acid], the pKi in data set [1] and in data set [2] was 8.00 to 10.00 throughout.
Consider `Cl.NC(CCCCB(O)O)(CCCOc1ccccc1)C(=O)O` (stereo not drawn) [Compound 1d, 2-Amino-6-(borono-2-(3-phenoxypropyl)hexanoic acid hydrochloride], for which the pKi in data set [1] and in data set [2] was 8.00 to 10.00 in each case.
As to `Cl.NC(CCCCB(O)O)(CCCOc1ccccc1)C(=O)O` (stereo not drawn) [Compound 1d], in data set [3], the “potency as arginase inhibitor, compared in words” value is listed as “as potent as Rac-ABH”.
Take `NC(CCCCB(O)O)(CCCCc1ccccc1)C(=O)O` (stereo not drawn) [Compound 1e, 2-Amino-6-borono-2-(4-phenylbutyl)hexanoic acid]: the pKi in data set [1] and in data set [2] was 7.00 to 8.00 throughout.
With `NC(CCCCB(O)O)(CCCOc1ccc(F)cc1)C(=O)O` (stereo not drawn) [Compound 1h, 2-Amino-6-borono-2-(3-(4-fluorophenoxy)propyl)hexanoic acid], the figures for the pKi in data set [1] and in data set [2] were 8.00 to 10.00 and 7.00 to 8.00, respectively.
Taken in the same sequence, the figures for `N#Cc1ccc(C(=O)NCCOCCC(N)(CCCCB(O)O)C(=O)O)cc1` (stereo not drawn) [Compound 38a, 2-Amino-6-borono-2-(2-(2-(4-cyanobenzamid)ethoxy)ethyl)hexanoic acid trifluoroacetate] were 7.00 to 8.00 and 7.00 to 8.00.
With `CC(=O)NCCOCCC(N)(CCCCB(O)O)C(=O)O` (stereo not drawn) [Compound 38b, 2-(2-(2-Acetamidoethoxy)ethyl)-2-amino-6-boronohexanoic acid], the pKi in data set [1] and in data set [2] was 6.30 to 7.00 in each case.
On to `COc1cccc(NC(=O)NCCOCCC(N)(CCCCB(O)O)C(=O)O)c1` (stereo not drawn) [Compound 39a, 2-Amino-6-borono-2-(2-(2-(3-(3-methoxyphenyl)ureido)ethoxy)ethyl)hexanoic acid], for which the pKi in data set [1] and in data set [2] was 7.00 to 8.00 throughout.
Turning to `COc1cccc(NC(=O)N2CCN(CCCC(N)(CCCCB(O)O)C(=O)O)CC2)c1` (stereo not drawn) [Compound 39c, 2-Amino-6-borono-2-(3-(4-(3-methoxyphenylcarbamoyl)piperazin-1-yl)propyl)hexanoic acid], the pKi in data set [1] and in data set [2] was 7.00 to 8.00 throughout.
With `Cc1ccc(S(=O)(=O)NCCCCC(N)(CCCCB(O)O)C(=O)O)cc1` (stereo not drawn) [Compound 40a, 2-Amino-6-borono-2-(4-(4-methylphenylsulfonamido)butyl)hexanoic acid], the pKi in data set [1] and in data set [2] was 7.00 to 8.00 each time.
On to `CC(N)(CCNC(N)=NO)C(=O)O` (stereo not drawn) [Compound 54a, 2-Amino-4-(2-hydroxyguanidino)-2-methylbutanoic acid dihydrochloride], for which the pKi in data set [1] and in data set [2] was 6.30 to 7.00 in each case.
The compound `N=C(NO)NCC[C@H](N)C(=O)O` [Nor-NOHA, N^ω-hydroxy-nor-1-arginine, reference compound] gave a pKi in data set [2] of 6.30 to 7.00.
As to `O=C1CCc2ccccc2O1` [dihydrocoumarin], the half-life entry in data set [4] (37° C. in the stomach) is “about 1 hour”.
As to `CC[C@H](C)C(=O)O[C@H]1C[C@@H](C)C=C2C=C[C@H](C)[C@H](CC[C@@H]3C[C@@H](O)CC(=O)O3)[C@H]21` [lovastatin, reference compound], in data set [4] (gastric pH and temperature), the “half-life of lactone hydrolysis” value was “about 1 hour”.

Source of the values: patent US10118936B2, “Arginase inhibitors and methods of use” (ASTRAZENECA AB, priority 2009, dated 2018).
